In US20110245323A1, “RIG-Like Helicase Innate Immunity Inhibits VEGF-Induced Tissue Responses” (Yale University, priority 2006, published 2011):
Entries after “also recorded” stand apart in the source; their conditions may differ.

Tests used:
Type in all cases: in vivo, mouse
[1] = tested on: CC10-rtTA-VEGF165 transgenic mice; experiment: VEGF-induced pulmonary hemorrhage in BAL fluids; settings: Tg+ mice, pretreatment, vs vehicle
Procedure: The CC10-rtTA-VEGF165 transgenic mice used in this study were generated and used as described previously (Lee et al., 2004, Nature Medicine 10:1095-103), which reference is incorporated herein in its entirety. These animals were housed under barrier conditions in the animal facility at Yale University School of Medicine. In these experiments 6-8 week old transgenic (Tg+) animals and their transgene negative littermate controls (Tg−) were randomized to receive water with doxycycline (dox) (0.5 mg/ml) or normal water. Two weeks later they were sacrificed and the VEGF-induced phenotype was evaluated as described below (Lee et al., 2004, Nature Medicine 10:1095-103). […]
Mice were sacrificed using intraperitoneal ketamine/xylazine injection and the trachea was cannulated and perfused with two 0.9 nil aliquots of cold saline. The cellular contents and BAL fluid were separated by centrifugation, the BAL cell number was quantitated and cell differential was assessed. […]
The lungs were removed en bloc as described elsewhere herein, inflated at 25 cm pressure with PBS containing 0.5% low melting point agarose gel, fixed in Streck solution (Streck Laboratories, La Vista, Nebr.), embedded in paraffin, sectioned and stained. […] Pulmonary hemorrhage was evaluated by quantitating BAL red blood cell number with a Coulter counter (Beckman Coulter).

[2] = tested on: CC10-rtTA-VEGF165 transgenic mice; experiment: BAL inflammatory cell recovery, VEGF-induced inflammation
Procedure: The CC10-rtTA-VEGF165 transgenic mice used in this study were generated and used as described previously (Lee et al., 2004, Nature Medicine 10:1095-103), which reference is incorporated herein in its entirety. These animals were housed under barrier conditions in the animal facility at Yale University School of Medicine. In these experiments 6-8 week old transgenic (Tg+) animals and their transgene negative littermate controls (Tg−) were randomized to receive water with doxycycline (dox) (0.5 mg/ml) or normal water. Two weeks later they were sacrificed and the VEGF-induced phenotype was evaluated as described below (Lee et al., 2004, Nature Medicine 10:1095-103).
To define the effects of these agents on the tissue responses induced by VEGF, two experimental procedures were used. In the first, a pretreatment protocol was used. In these experiments the noted innate immunity agonist ([…] unless otherwise indicated) or its vehicle control (PBS) were administered intranasally and aspirated into the lungs of randomized Tg+ and Tg− mice starting one day before the Dox water treatment. The doses were administered to the mice every other day during the 2 week doxyxycline (dox) treatment interval.
To determine if the innate immunity agonists altered established VEGF-induced tissue responses, a “post treatment” protocol was used in selected experiments. In these experiments the innate immunity agonist was administered 2 days or 14 days after the doxycycline and VEGF-induced responses were evaluated 2 weeks later.
(§1) To define the effects of Poly(I:C) a number of protocols were employed. In most experiments, a pretreatment-2 week protocol was employed. In these experiments, WT and Tg+ mice were treated with Poly(I:C) (30 μg in 50 lambda unless otherwise indicated; Amersham Biosciences, N.J.) or vehicle control via nasal aspiration and transgene activation was accomplished via the administration of dox (0.5 mg/ml) in the animal's drinking water 24 hours later. The Poly(I:C) was administered every other day and the dox was administered continuously for up to 2 weeks.
(§2) Lastly, in selected experiments post-transgene activation protocols were employed. In these experiments dox was administered for 2 days or 2 weeks. The Poly(I:C) was then administered via intranasal aspiration every other day for 2 weeks as disclosed elsewhere herein. In selected pre-treatment and post-transgene activation experiments, unmethylated CpG (CpG-B) (Keck Center, Yale University) was also employed at similar doses. At the end of these intervals, assessments of angiogenesis (anti-CD31 immunohistochemistry), vascular permeability (Evan's blue dye extravasation, wet to dry lung weight measurements, BAL protein concentration), BAL and tissue inflammatory cell infiltration and mucus metaplasia (periodic acid-Schiff (PAS) staining, MUC5AC immunoblotting) were undertaken. In all cases experiments were designed to compare Tg− and Tg+ mice on normal water and Tg− and Tg+ mice on dox water.
Mice were sacrificed using intraperitoneal ketamine/xylazine injection and the trachea was cannulated and perfused with two 0.9 nil aliquots of cold saline. The cellular contents and BAL fluid were separated by centrifugation, the BAL cell number was quantitated and cell differential was assessed. The BAL fluid was stored in aliquots at −80° C.

[3] = tested on: CC10-rtTA-VEGF165 transgenic mice; experiment: VEGF-induced vascular permeability (Evans blue dye extravasation, lung wet to dry weight ratio, BAL protein)
Procedure: as §1, §2
Lungs were excised en bloc and extrapulmonary tissues were removed. They were then weighed, placed in a desiccating oven at 65° C. for 48 hours and reweighed.
In some instances, animal lungs were excised en bloc after intravascular perfusion and weighed. They were then put into a SpeedVac system (ThermoSavant; Milford, Mass.), desiccated at 60° C. overnight, and reweighed.
Evans blue dye (EBD) (Sigma-Aldrich Inc.) in 0.9% saline at a concentration of 5 mg/ml was used to assess plasma leakage as previously described (Lee et al., 2004, Nat Med 10:1095-1103). The results are expressed as the ratio of the EBD absorbance at 620 nm of paired lung homogenates and serum.
BAL was undertaken and protein levels were assessed using the Dc Protein Assay Kit (Bio-Rad Laboratories, Hercules, Calif.) according to manufacturer's instructions. The optical density of each sample was read at 750 nm wave length with a Smartspec 3000 Spectrophotometer (Bio-Rad Laboratories).

IFN-α and IFN-β = experiment: BAL Type I IFNs by ELISA; settings: WT (Tg−) and VEGF Tg+ animals
Procedure: ELISA and activity assay kits for IFNa and IFNβ analysis were purchased from PBL Biomedical Laboratories (Piscataway, N.J.). ELISAs for eotaxin/CCL11, MCP-1/CCL2, KC/CXCL1 and MIP-2/CXCL14 were obtained from R&D Systems (Minneapolis, Minn. USA). Each was performed according to the manufacturer's instructions.

[4] = tested on: CC10-rtTA-VEGF165 transgenic mice; experiment: Lung tissue inflammation, histologic analysis; settings: Tg+ mice, pretreatment, vs vehicle
Procedure: The lungs were removed en bloc as described elsewhere herein, inflated at 25 cm pressure with PBS containing 0.5% low melting point agarose gel, fixed in Streck solution (Streck Laboratories, La Vista, Nebr.), embedded in paraffin, sectioned and stained. Hematoxylin and eosin and PAS stains were performed in the Research Histology Laboratory of the Department of Pathology at the Yale University School of Medicine. Pulmonary hemorrhage was evaluated by quantitating BAL red blood cell number with a Coulter counter (Beckman Coulter).

[5] = Tg+ mice, pretreatment, vs vehicle
[6] = pretreatment, highest dose tested

polyinosinic-polycytidylic acid [Poly(I:C)]
VEGF-induced bleeding / hemorrhage in BAL fluids [1]: significantly decreased
VEGF-induced inflammation, delayed administration ([2]; Tg+ mice, given 2 days (48 hours) or 14 days after transgene activation with dox): significant decrease; also recorded: significant regulation
recovery of macrophages, eosinophils and lymphocytes during BAL ([2]; Tg+ mice, pretreatment, p<0.05): significantly decreased
BAL neutrophil accumulation [2, 5]: increased
total recovery of inflammatory cells during BAL / VEGF-induced inflammation [2, 5]: markedly decreased; also recorded: inhibited
Total cells (×10^4) ([2]; VEGF-induced tissue responses, TLR agonist administration, PBS control 50): 22 ×10^4
lowest dose with significant alterations of VEGF-induced inflammation ([2]; pretreatment): 5 µg
dose with maximal regulation of VEGF-induced inflammation [2, 6]: 30 µg
Evan's blue dye leakage in lungs [3, 5]: lower levels
VEGF-induced permeability alterations (Evans blue dye extravasation, lung wet to dry weight ratios, BAL protein) [3, 5]: inhibited
levels of protein in BAL fluids [3, 5]: lower levels
VEGF-induced vascular permeability alterations, delayed administration ([3]; given 48 hours or 14 days after dox-induced transgene activation): significant inhibition
lowest dose with significant inhibition of VEGF-induced permeability alterations ([3]; pretreatment): 5 µg
dose with maximal inhibition of VEGF-induced permeability alterations [3, 6]: 30 µg
production of IFN-α and IFN-β in BAL (IFN-α and IFN-β): potent stimulator
inflammatory cell accumulation in lung tissues [4]: lower levels of inflammation
